From PMC8752738, “A propolis-derived small molecule ameliorates metabolic syndrome in obese mice by targeting the CREB/CRTC2 transcriptional complex” (Nature Communications, 2022)
Where “and” joins values, the source holds several entries; their conditions need not be identical. Identical values can stand only once.

Test system: tissue mRNA levels
Experiment: Quantitative PCR of tissue gene expression in treated mice
Type: in vivo, mouse
Parameters: key to mRNA levels Scap / mRNA levels Insig1 / mRNA levels Ldlr / mRNA levels Mttp / mRNA levels Atgl / mRNA levels Tnfaip2 / mRNA levels Rxra / mRNA levels Srebf1 / mRNA levels Ucp2: mRNA level normalized to ribosomal L32 mRNA (internal control)
Settings: for relative mRNA levels SREBP1a, group mean (Mean 2) / relative mRNA levels SREBP2, group mean (Mean 2) / relative mRNA levels SREBP1c, group mean (Mean 2) / relative mRNA levels Srebf-1a / relative mRNA levels Srebf-1c / relative mRNA levels Srebf-2: Figure 6a; for relative mRNA levels SREBP1a, group mean (Mean 2) / relative mRNA levels SREBP2, group mean (Mean 2) / relative mRNA levels SREBP1c, group mean (Mean 2): N=6; for relative mRNA levels SREBP1a, group mean (Mean 2): VEH mean 0.9485; for relative mRNA levels SREBP2, group mean (Mean 2): VEH mean 1.001; for relative mRNA levels SREBP1c, group mean (Mean 2): VEH mean 1.004; for relative mRNA levels Srebf-1a / relative mRNA levels Srebf-1c / relative mRNA levels Srebf-2: relative to VEH
Experimental: Total RNA from cells and tissues was extracted by Trizol (Invitrogen) and reverse-transcribed into cDNA using the prime script RT reagent kit with gDNA eraser (Takara). The mRNA levels were determined using the SYBR-green PCR kit (Takara) with ABIPRISM 7900HT Sequence detector (ABI) according to the manufacturer’s protocol. The quantitative qPCR primers used in this work are listed in Supplementary Table 1. Ribosomal L32 mRNA levels were used as an internal control.

[1] = DIO mice, i.p. 20 mg/kg, 5 weeks
[2] = APC 10mg/kg, individual animals
[3] = APC 20mg/kg, individual animals
[4] = Figure 6c, liver of DIO mice, individual animals

Compound: CC(C)=CCc1cc(C=CC(=O)O)cc(CC=C(C)C)c1O [APC, 3,5-diprenyl-4-hydroxycinnamic acid]
- mRNA levels of CREB/CRTC2 regulated genes in muscle, brain, spleen, kidney, small intestine, pancreas (C57 WT mice, one oral dose 20 mg/kg): did not significantly affect
- Mean Diff. (Veh. vs. treated; head of the quantity not shown, section just before Figure 7h) (CRTC2KO mice, Met 200mg/kg or APC-20): -0.1036
- hepatic mRNA levels of G6pc, Pck1 and Pgc-1α (DIO and db/db mice, i.p. 20 mg/kg, 5 weeks): remarkably reduced
- Pgc-1α and Pgc-1β expression in liver, white and brown adipose tissues (DIO mice): significantly reduced
- hepatic mRNA levels of SREBP target genes (DIO mice): reduced
- liver mRNA levels of Lxra [1]: decreased
- liver mRNA levels of Pparα, Pparγ and Rxrα [1]: little effect
- hepatic mRNA levels of Srebp-1a, 1c and 2 (DIO mice, i.p. 5 weeks): significantly decreased
- relative mRNA levels SREBP1a, group mean (Mean 2) (APC 10mg/kg): 0.6192
- relative mRNA levels SREBP2, group mean (Mean 2) (APC 10mg/kg): 0.7198
- relative mRNA levels SREBP1c, group mean (Mean 2) (APC 10mg/kg): 0.5199
- relative mRNA levels Srebf-1a [2]: 0.7632 and 0.606 and 0.6752 and 0.5408 and 0.5316 and 0.5987
- relative mRNA levels Srebf-1c [2]: 0.3899 and 0.7333 and 0.3575 and 0.4477 and 0.6292 and 0.5618
- relative mRNA levels Srebf-2 [2]: 0.89 and 0.7028 and 0.7151 and 0.6142 and 0.6241 and 0.7725
- relative mRNA levels SREBP1a, group mean (Mean 2) (APC 20mg/kg): 0.576
- relative mRNA levels SREBP2, group mean (Mean 2) (APC 20mg/kg): 0.6534
- relative mRNA levels SREBP1c, group mean (Mean 2) (APC 20mg/kg): 0.4898
- relative mRNA levels Srebf-1a [3]: 0.7402 and 0.4743 and 0.5973 and 0.6221 and 0.5888 and 0.4336
- relative mRNA levels Srebf-1c [3]: 0.4905 and 0.5691 and 0.5139 and 0.3623 and 0.4504 and 0.5527
- relative mRNA levels Srebf-2 [3]: 0.7803 and 0.8192 and 0.5739 and 0.6729 and 0.5114 and 0.5627
- mRNA levels Pgc-1a, Mean of APC (Figure 6c, liver of DIO mice, group mean, Mean of VEH 0.9497): 0.7169
- mRNA levels Hmgcs, Mean of APC (Figure 6c, liver of DIO mice, group mean, Mean of VEH 0.9581): 0.6963
- mRNA levels Pgc-1b, Mean of APC (Figure 6c, liver of DIO mice, group mean, Mean of VEH 0.9596): 0.6511
- mRNA levels Acl, Mean of APC (Figure 6c, liver of DIO mice, group mean, Mean of VEH 0.9821): 0.5548
- mRNA levels Insig1, Mean of APC (Figure 6c, liver of DIO mice, group mean, Mean of VEH 0.983): 1.256
- mRNA levels Ldlr, Mean of APC (Figure 6c, liver of DIO mice, group mean, Mean of VEH 0.9914): 0.5526
- mRNA levels ApoE, Mean of APC (Figure 6c, liver of DIO mice, group mean, Mean of VEH 0.9918): 0.7552
- mRNA levels Acsl1, Mean of APC (Figure 6c, liver of DIO mice, group mean, Mean of VEH 0.995): 0.6996
- mRNA levels Insig2b, Mean of APC (Figure 6c, liver of DIO mice, group mean, Mean of VEH 1.003): 1.315
- mRNA levels Lxra, Mean of APC (Figure 6c, liver of DIO mice, group mean, Mean of VEH 1.007): 0.5396
- mRNA levels Cel, Mean of APC (Figure 6c, liver of DIO mice, group mean, Mean of VEH 1.031): 2.279
- mRNA levels Acc, Mean of APC (Figure 6c, liver of DIO mice, group mean, Mean of VEH 1.033): 0.6639
- mRNA levels Pcsk9, Mean of APC (Figure 6c, liver of DIO mice, group mean, Mean of VEH 1.034): 0.8062
- mRNA levels Cpt1, Mean of APC (Figure 6c, liver of DIO mice, group mean, Mean of VEH 1.037): 2.106
- mRNA levels Mttp, Mean of APC (Figure 6c, liver of DIO mice, group mean, Mean of VEH 1.041): 0.553
- mRNA levels Scd1, Mean of APC (Figure 6c, liver of DIO mice, group mean, Mean of VEH 1.044): 1.532
- mRNA levels Lipg, Mean of APC (Figure 6c, liver of DIO mice, group mean, Mean of VEH 1.051): 1.548
- mRNA levels ApoB, Mean of APC (Figure 6c, liver of DIO mice, group mean, Mean of VEH 1.052): 0.8089
- mRNA levels Hmgcl, Mean of APC (Figure 6c, liver of DIO mice, group mean, Mean of VEH 1.059): 0.5112
- mRNA levels Scap, Mean of APC (Figure 6c, liver of DIO mice, group mean, Mean of VEH 1.06): 0.7595
- mRNA levels Mgll, Mean of APC (Figure 6c, liver of DIO mice, group mean, Mean of VEH 1.072): 1.87
- mRNA levels Fasn, Mean of APC (Figure 6c, liver of DIO mice, group mean, Mean of VEH 1.142): 0.5649
- mRNA levels Acc [4]: 0.6012 and 0.6553 (2×) and 0.7255 and 0.7608 and 0.5855
- mRNA levels Acl [4]: 0.303 and 0.3204 and 0.7174 and 0.7065 and 0.7574 and 0.524
- mRNA levels Acsl1 [4]: 0.5351 and 0.5673 and 0.8699 and 0.7501 and 0.6417 and 0.8334
- mRNA levels ApoB [4]: 0.8489 and 0.8438 and 0.8351 and 0.7306 and 0.803 and 0.7922
- mRNA levels ApoE [4]: 0.7234 and 0.6714 and 0.8902 and 0.7927 and 0.794 and 0.6594
- mRNA levels Cel [4]: 1.61 and 1.758 and 2.648 and 2.653 and 2.573 and 2.434
- mRNA levels Cpt1 [4]: 2.1427 and 2.6 and 2.578 and 1.766 and 1.996 and 1.554
- mRNA levels Fasn [4]: 0.5582 and 0.6145 and 0.8825 and 0.8943 and 0.221 and 0.219
- mRNA levels Hmgcl [4]: 0.8031 and 0.3302 and 0.7226 and 0.5347 and 0.468 and 0.2089
- mRNA levels Hmgcs [4]: 0.6002 and 0.7721 and 0.6122 and 0.7412 and 0.7304 and 0.7219
- mRNA levels Insig1 [4]: 1.154 and 1.297 and 1.198 and 1.324 and 1.22 and 1.341
